Source: patent US6537986B2, “Oxazolidinone antibacterial agents having a thiocarbonyl funtionality” (Pharmacia & Upjohn Company, priority 1997, dated 2003)
In brackets after ≈: the same amount, converted by molar mass. Where two headings read alike, the source gives them in different places.

Experiments:
[1] = system: Haemophilus influenzae (HINF 30063); assay: MIC, standard agar dilution method; assay type: cell-based; conditions: Table II, Mueller Hinton agar, incubated overnight at 35° C.; for MIC: Haemophilus influenzae
Method: (§1) MIC Test Method The in vitro MICs of test compounds were determined by a standard agar dilution method. […] Serial 2-fold dilutions of each sample are made using 1.0 ml aliquots of sterile distilled water. To each 1.0 ml aliquot of drug is added 9 ml of molten Mueller Hinton agar medium. The drug-supplemented agar is mixed, poured into 15×100 mm petri dishes, and allowed to solidify and dry prior to inoculation. Vials of each of the test organisms are maintained frozen in the vapor phase of a liquid nitrogen freezer. Test cultures are grown overnight at 35° C. on the medium appropriate for the organism. Colonies are harvested with a sterile swab, and cell suspensions are prepared in Trypticase Soy broth (TSB) to equal the turbidity of a 0.5 McFarland standard. A 1:20 dilution of each suspension is made in TSB. […] The plates are incubated overnight at 35° C. Following incubation the Minimum Inhibitory Concentration (MIC μg/ml), the lowest concentration of drug that inhibits visible growth of the organism, is read and recorded.

[2] = system: S. epidermidis (SEPI 30593); assay: MIC, standard agar dilution method; assay type: cell-based; conditions: Table II, Mueller Hinton agar, incubated overnight at 35° C.; for MIC: Staphylococcus epidermidis
Method: as §1

[3] = system: S. pneumoniae (SPNE 9912); assay: MIC, standard agar dilution method; assay type: cell-based; conditions: Table II, Mueller Hinton agar, incubated overnight at 35° C.; for MIC: Streptococcus pneumoniae, read-out: SPNE 9912 MIC
Method: as §1

[4] = system: Moraxella catarrhalis (MCAT 30610); assay: MIC, standard agar dilution method; assay type: cell-based; conditions: Table II, Mueller Hinton agar, incubated overnight at 35° C.; for MIC: Moraxella catarrhalis
Method: as §1

E. Faecium (EFAE 12712) = assay: MIC, standard agar dilution method; assay type: cell-based; conditions: for MIC: Enterococcus faecium, read-out: EFAE 12712 MIC
Method: as §1

S. aureus (SAUR 9213) = assay: MIC, standard agar dilution method; assay type: cell-based; conditions: Table II, Mueller Hinton agar, incubated overnight at 35° C.; for MIC: Staphylococcus aureus, read-out: SAUR 9213 MIC
Method: as §1

[5] = system: Enterococcus faecalis (EFAE 9217); assay: MIC, standard agar dilution method; assay type: cell-based; conditions: Table II, key: Enterococcus faecalis, Mueller Hinton agar, incubated overnight at 35° C.; for MIC: read-out: EFAE 9217 MIC
Method: as §1

S. pyogenes (SPYO 152) = assay: MIC, standard agar dilution method; assay type: cell-based; conditions: Table II, Mueller Hinton agar, incubated overnight at 35° C.; for MIC: Streptococcus pyogenes, read-out: SPYO 152 MIC
Method: as §1

[6] = Table II, key: E. Faecium, agar dilution, Mueller Hinton agar, incubated overnight at 35° C.

MIC [1] | MIC [2] | MIC [3] | MIC [4] | MIC (E. Faecium (EFAE 12712); [6]) | MIC (S. aureus (SAUR 9213)) | MIC [5] | MIC (S. pyogenes (SPYO 152)) | melting point | MIC (E. Faecium (EFAE 12712)) | HINF 30063 MIC [1] | SEPI 30593 MIC [2] | SPNE 9912 MIC [3] | MCAT 30610 MIC [4] | EFAE 12712 MIC (E. Faecium (EFAE 12712); [6]) | SAUR 9213 MIC (S. aureus (SAUR 9213)) | EFAE 9217 MIC [5] | SPYO 152 MIC (S. pyogenes (SPYO 152)) | SMILES
2 µg/mL (≈ 4.99 µM) | 0.25 µg/mL (≈ 0.624 µM) | < 0.125 µg/mL | 1 µg/mL (≈ 2.5 µM) | 0.25 µg/mL (≈ 0.624 µM) | 0.25 µg/mL (≈ 0.624 µM) | 0.25 µg/mL (≈ 0.624 µM) | 0.25 µg/mL (≈ 0.624 µM) | – | – | – | – | – | – | – | – | – | – | CC(=S)NC[C@H]1CN(c2ccc(C3CCS(=O)(=O)CC3)c(F)c2)C(=O)O1 [Example 11, (S)-N-[[3-[3-Fluoro-4-(tetrahydro-1,1-dioxido-2H-thiopyran-4-yl)phenyl]-2-oxo-5-oxazolidinyl]methyl]ethanethioamide]
4 µg/mL (≈ 9.72 µM) | 1 µg/mL (≈ 2.43 µM) | < 0.125 µg/mL | 1 µg/mL (≈ 2.43 µM) | 1 µg/mL (≈ 2.43 µM) | 2 µg/mL (≈ 4.86 µM) | 1 µg/mL (≈ 2.43 µM) | 0.25 µg/mL (≈ 0.608 µM) | 209 to 210 °C | – | – | – | – | – | – | – | – | – | NC(=S)NC[C@H]1CN(c2ccc(N3CCN(C(=O)CO)CC3)c(F)c2)C(=O)O1 [Example 31, (S)-N-[[3-[3-Fluoro-4-[4-(hydroxyacetyl)-1-piperazinyl]phenyl]-2oxo-5-oxazolidinyl]-methyl]thiourea]
4 µg/mL (≈ 10.3 µM) | 2 µg/mL (≈ 5.17 µM) | 0.25 µg/mL (≈ 0.647 µM) | 2 µg/mL (≈ 5.17 µM) | 1 µg/mL (≈ 2.59 µM) | 4 µg/mL (≈ 10.3 µM) | 4 µg/mL (≈ 10.3 µM) | 0.25 µg/mL (≈ 0.647 µM) | 212 to 213 °C | – | – | – | – | – | – | – | – | – | NC(=S)NC[C@H]1CN(c2ccc(N3CC[S+]([O-])CC3)c(F)c2)C(=O)O1 [Example 33, (S)-N-[[3-[3-Fluoro-4-(4-thiomorpholinyl)phenyl]-2-oxo-5-oxazolidinyl]methyl]thiourea, thiomorpholine S-oxide]
4 µg/mL (≈ 10.4 µM) | 0.25 µg/mL (≈ 0.65 µM) | < 0.125 µg/mL | 1 µg/mL (≈ 2.6 µM) | – | 0.5 µg/mL (≈ 1.3 µM) | 0.5 µg/mL (≈ 1.3 µM) | 0.25 µg/mL (≈ 0.65 µM) | – | 0.5 µg/mL (≈ 1.3 µM) | – | – | – | – | – | – | – | – | CC(=S)NC[C@H]1CN(c2ccc([C@H]3CC[S@@+]([O-])CC3)c(F)c2)C(=O)O1 [Example 7, (S)-cis-N-[[3-[3-Fluoro-4-(tetrahydro-1-oxido-2H-thiopyran-4-yl)phenyl]-2-oxo-5-oxazolidinyl]methyl]ethanethioamide]
– | – | – | – | – | – | – | – | – | – | >16 µg/mL | 1 µg/mL | 0.5 µg/mL | 4 µg/mL | 2 µg/mL | 2 µg/mL | 2 µg/mL | 1 µg/mL | CSC(=S)NC[C@H]1CN(c2ccc(N3CCOCC3)c(F)c2)C(=O)O1 [Example 34]
1 µg/mL (≈ 2.49 µM) | 0.5 µg/mL (≈ 1.25 µM) | < 0.125 µg/mL | 0.5 µg/mL (≈ 1.25 µM) | 0.25 µg/mL (≈ 0.623 µM) | 1 µg/mL (≈ 2.49 µM) | 0.5 µg/mL (≈ 1.25 µM) | < 0.125 µg/mL | – | – | – | – | – | – | – | – | – | – | NC(=S)NC[C@H]1CN(c2ccc(C3CCS(=O)(=O)CC3)c(F)c2)C(=O)O1 [Example 12, (S)-N-[[3-[3-Fluoro-4-(tetrahydro-1,1-dioxido-2H-thiopyran-4-yl)phenyl]-2-oxo-5-oxazolidinyl]methyl]thiourea]
8 µg/mL (≈ 21.8 µM) | 0.5 µg/mL (≈ 1.36 µM) | 0.25 µg/mL (≈ 0.68 µM) | 1 µg/mL (≈ 2.72 µM) | 1 µg/mL (≈ 2.72 µM) | 1 µg/mL (≈ 2.72 µM) | 1 µg/mL (≈ 2.72 µM) | 0.5 µg/mL (≈ 1.36 µM) | 138 to 139 °C | – | – | – | – | – | – | – | – | – | CCC(=S)NC[C@H]1CN(c2ccc(N3CCOCC3)c(F)c2)C(=O)O1 [Example 14, (S)-N-[[3-[3-Fluoro-4-(4-morpholinyl)phenyl]-2-oxo-5-oxazolidinyl]methyl]thiopropion-amide]
8 µg/mL (≈ 22.8 µM) | 2 µg/mL (≈ 5.71 µM) | 0.25 µg/mL (≈ 0.713 µM) | 2 µg/mL (≈ 5.71 µM) | 2 µg/mL (≈ 5.71 µM) | 16 µg/mL (≈ 45.7 µM) | 4 µg/mL (≈ 11.4 µM) | 0.25 µg/mL (≈ 0.713 µM) | 214 to 215 °C (dec.) | – | – | – | – | – | – | – | – | – | NC(=S)NC[C@H]1CN(c2ccc3c(c2)CCN3C(=O)CO)C(=O)O1 [Example 32, (S)-N-[[3-[1-(Hydroxyacetyl)-5-indolinyl]-2-oxo-5-5 oxazolidinyl]methyl]thiourea]
– | – | – | – | – | – | – | – | 129 to 131 °C | – | – | – | – | – | – | – | – | – | CC(=S)NC[C@H]1CN(c2ccc(N3CCCSCC3)cc2)C(=O)O1 [Example 534, (5S)-N-[[3-[4-(Tetrahydro-1,4-thiazepin-4(5H)-yl)phenyl]-2-oxo-5-oxazolidinyl]methyl]thioacetamide]
